# Data as given in PubChem BioAssay (NCI).
#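 Growth conditions: 96-well plates. Treatment: test compound, 48 hours, 5 concentrations. Analysis: linear interpolation between bracketing concentrations; unreached endpoints set to highest concentration. The concentration for 50% growth inhibition is given as GI50. Definition used: TGI = concentration required for complete inhibition of growth.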
# Experiments:
# Experiment in all cases: NCI tumour cell line growth inhibition, 48 h
# [1] = tested on: HCT-15 colon
# [2] = tested on: HOP-92 NSCLC
# [3] = tested on: SK-OV-3 ovarian
# [4] = tested on: HCC-2998 colon
# [5] = tested on: SF-268 CNS
# [6] = tested on: MALME-3M melanoma
# [7] = tested on: TK-10 renal
# [8] = tested on: BT-549 breast
# [9] = tested on: SNB-19 CNS
# [10] = tested on: A498 renal
# [11] = tested on: A549 NSCLC
# [12] = tested on: SK-MEL-5 melanoma
# [13] = tested on: U251 CNS
# [14] = tested on: RPMI-8226 leukemia
# [15] = tested on: HS 578T breast
# [16] = tested on: SK-MEL-28 melanoma
# [17] = tested on: LOX IMVI melanoma
# [18] = tested on: KM12 colon
# [19] = tested on: SF-295 CNS
# [20] = tested on: UO-31 renal
# [21] = tested on: M14 melanoma
# [22] = tested on: MOLT-4 leukemia
# [23] = tested on: HL-60(TB) leukemia
# [24] = tested on: SW-620 colon
# [25] = tested on: T-47D breast
# [26] = tested on: MCF7 breast
# [27] = tested on: COLO 205 colon
# [28] = tested on: EKVX NSCLC
# [29] = tested on: SR leukemia
# [30] = tested on: NCI-H460 lung
# [31] = tested on: CAKI-1 renal
# [32] = tested on: NCI/ADR-RES ovarian
# [33] = tested on: SF-539 CNS
# [34] = tested on: PC-3 prostate
# [35] = tested on: OVCAR-4 ovarian
# [36] = tested on: IGROV1 ovarian
# [37] = tested on: UACC-257 melanoma
# [38] = tested on: HOP-62 NSCLC
# [39] = tested on: UACC-62 melanoma
# [40] = tested on: OVCAR-8 ovarian
# [41] = tested on: NCI-H226 lung
# [42] = tested on: MDA-MB-231 breast
# [43] = tested on: OVCAR-5 ovarian
# [44] = tested on: SK-MEL-2 melanoma
# [45] = tested on: MDA-MB-435
# [46] = tested on: RXF 393 renal
# [47] = tested on: HT29 colon
# [48] = tested on: DU-145 prostate
# [49] = tested on: NCI-H23 lung
# [50] = tested on: K-562 leukemia
# [51] = tested on: 786-0 renal
# [52] = tested on: SNB-75 CNS
# [53] = tested on: NCI-H522 lung
# [54] = tested on: SN12C renal
# [55] = tested on: CCRF-CEM leukemia
# [56] = tested on: ACHN renal
compound,measurement,setting,value
Nc1ccccc1NC(=O)c1ccc(NC(=O)C/C=C/c2cccnc2)cn1,GI50,[1],0.523 µM
same,TGI,[1],> 50 µM
same,GI50,[2],0.0953 µM
same,TGI,[2],1.26 µM
same,GI50,[3],1.67 µM
same,TGI,[3],> 27.4 µM
same,GI50,[4],0.801 µM
same,TGI,[4],4.26 µM
same,GI50,[5],1.3 µM
same,TGI,[5],> 40 µM
same,GI50,[6],0.19 µM
same,GI50,[7],0.0583 µM
same,TGI,[7],1.8 µM
same,GI50,[8],0.777 µM
same,TGI,[8],3.73 µM
same,GI50,[9],1.72 µM
same,TGI,[9],> 50 µM
same,GI50,[10],0.347 µM
same,TGI,[10],1.62 µM
same,GI50,[11],2.04 µM
same,TGI,[11],> 50 µM
same,GI50,[12],0.958 µM
same,TGI,[12],2.37 µM
same,GI50,[13],0.732 µM
same,TGI,[13],> 23.6 µM
same,GI50,[14],0.336 µM
same,TGI,[14],> 10.2 µM
same,GI50,[15],0.826 µM
same,TGI,[15],37.1 µM
same,GI50,[16],0.866 µM
same,TGI,[16],2.65 µM
same,GI50,[17],0.286 µM
same,TGI,[17],3.95 µM
same,GI50,[18],1.43 µM
same,TGI,[18],> 20.5 µM
same,GI50,[19],1.4 µM
same,TGI,[19],8.28 µM
same,GI50,[20],0.702 µM
same,TGI,[20],16.6 µM
same,GI50,[21],0.704 µM
same,TGI,[21],11.4 µM
same,GI50,[22],0.724 µM
same,TGI,[22],> 50 µM
same,GI50,[23],0.284 µM
same,TGI,[23],> 29.4 µM
same,GI50,[24],0.188 µM
same,TGI,[24],> 14.8 µM
same,GI50,[25],0.279 µM
same,TGI,[25],> 13.7 µM
same,GI50,[26],0.806 µM
same,TGI,[26],> 13.5 µM
same,GI50,[27],0.445 µM
same,TGI,[27],2.39 µM
same,GI50,[28],2.38 µM
same,TGI,[28],> 50 µM
same,GI50,[29],0.435 µM
same,TGI,[29],> 50 µM
same,GI50,[30],0.745 µM
same,TGI,[30],> 37.4 µM
same,GI50,[31],1.68 µM
same,TGI,[31],13 µM
same,GI50,[32],1.16 µM
same,TGI,[32],> 50 µM
same,GI50,[33],0.148 µM
same,TGI,[33],3.07 µM
same,GI50,[34],0.806 µM
same,TGI,[34],> 50 µM
same,GI50,[35],1.99 µM
same,TGI,[35],> 50 µM
same,GI50,[36],0.601 µM
same,TGI,[36],> 50 µM
same,GI50,[37],0.798 µM
same,TGI,[37],> 13.3 µM
same,GI50,[38],1.11 µM
same,TGI,[38],> 24.9 µM
same,GI50,[39],0.745 µM
same,TGI,[39],3.6 µM
same,GI50,[40],0.0839 µM
same,TGI,[40],> 50 µM
same,GI50,[41],1.08 µM
same,TGI,[41],19.6 µM
same,GI50,[42],3.35 µM
same,TGI,[42],> 50 µM
same,GI50,[43],0.509 µM
same,TGI,[43],> 50 µM
same,GI50,[44],0.816 µM
same,TGI,[44],5.09 µM
same,GI50,[45],1.1 µM
same,TGI,[45],> 16 µM
same,GI50,[46],0.864 µM
same,TGI,[46],5.9 µM
same,GI50,[47],0.531 µM
same,TGI,[47],> 33.9 µM
same,GI50,[48],0.544 µM
same,TGI,[48],2.06 µM
same,GI50,[49],1.45 µM
same,TGI,[49],> 24.9 µM
same,GI50,[50],0.213 µM
same,TGI,[50],> 50 µM
same,GI50,[51],1.52 µM
same,TGI,[51],8.17 µM
same,GI50,[52],0.674 µM
same,TGI,[52],> 47.6 µM
same,GI50,[53],0.334 µM
same,TGI,[53],3.37 µM
same,GI50,[54],0.329 µM
same,TGI,[54],> 50 µM
same,GI50,[55],0.216 µM
same,TGI,[55],> 50 µM
same,GI50,[56],1.52 µM
same,TGI,[56],> 50 µM
